Source: patent publication US12320798B2, “Diagnostic methods, therapeutic agents and uses thereof” (Metabolon, Inc., priority 2015, dated 2025)

Assay: 12 week lifestyle plus metformin intervention in IFG subjects
Assay type: in vivo, human
Details: 12 weeks lifestyle + metformin 2 g/day, 33 IFG subjects
Text: 33 subjects with IFG underwent a 12 week intervention including both lifestyle (diet and exercise) changes and drug (metformin, dose: 2 g/day) therapy. At baseline, this study was 49% female with a mean age of 54 and mean BMI of 30.9.

CN(C)C(=N)N=C(N)N [metformin]
% Decrease from baseline, 2hPG: 13.0% | % Decrease from baseline, FPG: 9.4% | % Decrease from baseline, Weight: 6.8%
